This series is described as follows: Stability experiment of final compound: solid in sealed vial kept in oven, purity checked by UPLC. Format: physicochemical. The conditions noted are these: for Stability Result Solid at 20° C./7day (purity) / Stability Result Solid at 100° C./1 day (purity): 10 mg solid in 4 mL vial with sealed cap; for Stability Result Solid at 20° C./7day (purity): 7 days; for Stability Result Solid at 20° C./7day (purity) / Stability Result Solid at 100° C./1 day (purity) / Initial Purity: purity by UPLC; for Stability Result Solid at 100° C./1 day (purity): oven 100° C.; for Initial Purity: solid before storage; for Stability of HCl salt compared with freebase form: conclusion in words from Table 2. An excerpt: Stability Experiment of Final Compound of Formula (I)
Freebase of Example 4: 6-[5-cyano-6-fluoro-8-(methylamino)-4-[(3aS,6aS)-5-methyl-2,3,3a,4,6,6a-hexahydropyrrolo[2,3-c]pyrrol-1-yl]-9H-pyrido[2,3-b]indol-3-yl]-1-methyl-4-oxo-1,8-naphthyridine-3-carboxylic acid; initial purity: 99.16%
HCl salt compound (Example 4): 6-[5-cyano-6-fluoro-8-(methylamino)-4-[(3aS,6aS)-5-methyl-2,3,3a,4,6,6a-hexahydropyrrolo[2,3-c]pyrrol-1-yl]-9H-pyrido[2,3-b]indol-3-yl]-1-methyl-4-oxo-1,8-naphthyridine-3-carboxylic acid; hydrochloride; initial purity: 98.50%
Freebase of Example 8: 6-[5,6-difluoro-8-(methylamino)-4-[(3aS,6aS)-5-methyl-2,3,3a,4,6,6a-hexahydropyrrolo[2,3-c]pyrrol-1-yl]-9H-pyrido[2,3-b]indol-3-yl]-1-methyl-4-oxo-1,8-naphthyridine-3-carboxylic acid; initial purity: 97.96%
HCl salt compound (Example 8): 6-[5,6-difluoro-8-(methylamino)-4-[(3aS,6aS)-5-methyl-2,3,3a,4,6,6a-hexahydropyrrolo[2,3-c]pyrrol-1-yl]-9H-pyrido[2,3-b]indol-3-yl]-1-methyl-4-oxo-1,8-naphthyridine-3-carboxylic acid; hydrochloride; initial purity: 97.80%
Condition: 10 mg of compound in 4 mL vial with sealed cap. Keep in oven at certain temperature for certain days. Then, the purity of solid was checked by UPLC.

Where a name gives a salt, the structure may show the parent alone.

As for `CNc1cc(F)c(C#N)c2c1[nH]c1ncc(-c3cnc4c(c3)c(=O)c(C(=O)O)cn4C)c(N3CC[C@H]4CN(C)C[C@H]43)c12` [Freebase of Example 4, 6-[5-cyano-6-fluoro-8-(methylamino)-4-[(3aS,6aS)-5-methyl-2,3,3a,4,6,6a-hexahydropyrrolo[2,3-c]pyrrol-1-yl]-9H-pyrido[2,3-b]indol-3-yl]-1-methyl-4-oxo-1,8-naphthyridine-3-carboxylic acid], the “Stability Result Solid at 20° C./7day (purity)” value is given as 95.73%, the “Stability Result Solid at 100° C./1 day (purity)” value is 93.35% and the “Initial Purity” value is reported as 99.16%.
For the compound `CNc1cc(F)c(F)c2c1[nH]c1ncc(-c3cnc4c(c3)c(=O)c(C(=O)O)cn4C)c(N3CC[C@H]4CN(C)C[C@H]43)c12` [Freebase of Example 8, 6-[5,6-difluoro-8-(methylamino)-4-[(3aS,6aS)-5-methyl-2,3,3a,4,6,6a-hexahydropyrrolo[2,3-c]pyrrol-1-yl]-9H-pyrido[2,3-b]indol-3-yl]-1-methyl-4-oxo-1,8-naphthyridine-3-carboxylic acid], the “Stability Result Solid at 20° C./7day (purity)” value was 96.72%, the “Stability Result Solid at 100° C./1 day (purity)” value is on record as 91.08% and the “Initial Purity” value is on record as 97.96%.
Take `CNc1cc(F)c(C#N)c2c1[nH]c1ncc(-c3cnc4c(c3)c(=O)c(C(=O)O)cn4C)c(N3CC[C@H]4CN(C)C[C@H]43)c12` [HCl salt compound (Example 4), 6-[5-Cyano-6-fluoro-8-(methylamino)-4-[(3aS,6aS)-5-methyl-2,3,3a,4,6,6a-hexahydropyrrolo[2,3-c]pyrrol-1-yl]-9H-pyrido[2,3-b]indol-3-yl]-1-methyl-4-oxo-1,8-naphthyridine-3-carboxylic acid; dihydrochloride]: the “Stability of HCl salt compared with freebase form” value was “much more stable than its freebase form” and the “Initial Purity” value turned out to be 98.50%. Moreover, where the note is “dihydrochloride”, the “Stability Result Solid at 20° C./7day (purity)” value was found to be 98.67% and the “Stability Result Solid at 100° C./1 day (purity)” value was found to be 98.48%.
For `CNc1cc(F)c(F)c2c1[nH]c1ncc(-c3cnc4c(c3)c(=O)c(C(=O)O)cn4C)c(N3CC[C@H]4CN(C)C[C@H]43)c12` [HCl salt compound (Example 8), 6-[5,6-Difluoro-8-(methylamino)-4-[(3aS,6aS)-5-methyl-2,3,3a,4,6,6a-hexahydropyrrolo[2,3-c]pyrrol-1-yl]-9H-pyrido[2,3-b]indol-3-yl]-1-methyl-4-oxo-1,8-naphthyridine-3-carboxylic acid; dihydrochloride] the same measures were “much more stable than its freebase form”, 97.80%, 97.78% and 97.77%.
